The kinase profiling compilation of Christmann-Franck et al. (2016)

Legend:
Test in all cases: radiometric filter-binding kinase assay, Kinase HotSpot
Conditions in all cases: compound 0.5 µM; ATP 10 µM
AKT2 (human) = AKT2 (human) (UniProt P31751)
CAMK1G (human) = CAMK1G (human) (UniProt Q96NX5)
CAMK2A (human) = CAMK2A (human) (UniProt Q9UQM7)
CAMK2B (human) = CAMK2B (human) (UniProt Q13554)
CAMK2D (human) = CAMK2D (human) (UniProt Q13557)
CDK2 CCNA2 (human) = CDK2 CCNA2 (human) (UniProt P24941+P20248)
CDK3 CCNE1 (human) = CDK3 CCNE1 (human) (UniProt Q00526+P24864)
CDK4 CCND1 (human) = CDK4 CCND1 (human) (UniProt P24385+P11802)
CDK6 CCND3 (human) = CDK6 CCND3 (human) (UniProt P30281+Q00534)
CHEK1 (human) = CHEK1 (human) (UniProt O14757)
CLK1 (human) = CLK1 (human) (UniProt P49759)
DAPK1 (human) = DAPK1 (human) (UniProt P53355)
DAPK2 (human) = DAPK2 (human) (UniProt Q9UIK4)
EPHB2 (human) = EPHB2 (human) (UniProt P29323)
FLT3 (human) = FLT3 (human) (UniProt P36888)
HCK (human) = HCK (human) (UniProt P08631)
IKBKB (human) = IKBKB (human) (UniProt O14920)
INSRR (human) = INSRR (human) (UniProt P14616)
IRAK4 (human) = IRAK4 (human) (UniProt Q9NWZ3)
JAK2 JH1 JH2 (human) = JAK2 JH1 JH2 (human) (UniProt O60674)
MAP3K9 (human) = MAP3K9 (human) (UniProt P80192)
MKNK2 (human) = MKNK2 (human) (UniProt Q9HBH9)
PAK2 (human) = PAK2 (human) (UniProt Q13177)
PAK7 (human) = PAK7 (human) (UniProt Q9P286)
PDGFRA (human) = PDGFRA (human) (UniProt P16234)
PRKACA (human) = PRKACA (human) (UniProt P17612)
PRKCA (human) = PRKCA (human) (UniProt P17252)
PRKCB2 (human) = PRKCB2 (human) (UniProt P05771)
PRKG2 (human) = PRKG2 (human) (UniProt Q13237)
PRKX (human) = PRKX (human) (UniProt P51817)
ROCK1 (human) = ROCK1 (human) (UniProt Q13464)
SLK (human) = SLK (human) (UniProt Q9H2G2)
STK10 (human) = STK10 (human) (UniProt O94804)
STK11 (human) = STK11 (human) (UniProt Q15831)
STK3 (human) = STK3 (human) (UniProt Q13188)
SYK (human) = SYK (human) (UniProt P43405)
TAOK3 (human) = TAOK3 (human) (UniProt Q9H2K8)
TBK1 (human) = TBK1 (human) (UniProt Q9UHD2)
TGFBR1 (human) = TGFBR1 (human) (UniProt P36897)
TGFBR2 (human) = TGFBR2 (human) (UniProt P37173)
TSSK2 (human) = TSSK2 (human) (UniProt Q96PF2)
TYRO3 (human) = TYRO3 (human) (UniProt Q06418)

Chain of SLK (human) (Q9H2G2 whole entry, looked up): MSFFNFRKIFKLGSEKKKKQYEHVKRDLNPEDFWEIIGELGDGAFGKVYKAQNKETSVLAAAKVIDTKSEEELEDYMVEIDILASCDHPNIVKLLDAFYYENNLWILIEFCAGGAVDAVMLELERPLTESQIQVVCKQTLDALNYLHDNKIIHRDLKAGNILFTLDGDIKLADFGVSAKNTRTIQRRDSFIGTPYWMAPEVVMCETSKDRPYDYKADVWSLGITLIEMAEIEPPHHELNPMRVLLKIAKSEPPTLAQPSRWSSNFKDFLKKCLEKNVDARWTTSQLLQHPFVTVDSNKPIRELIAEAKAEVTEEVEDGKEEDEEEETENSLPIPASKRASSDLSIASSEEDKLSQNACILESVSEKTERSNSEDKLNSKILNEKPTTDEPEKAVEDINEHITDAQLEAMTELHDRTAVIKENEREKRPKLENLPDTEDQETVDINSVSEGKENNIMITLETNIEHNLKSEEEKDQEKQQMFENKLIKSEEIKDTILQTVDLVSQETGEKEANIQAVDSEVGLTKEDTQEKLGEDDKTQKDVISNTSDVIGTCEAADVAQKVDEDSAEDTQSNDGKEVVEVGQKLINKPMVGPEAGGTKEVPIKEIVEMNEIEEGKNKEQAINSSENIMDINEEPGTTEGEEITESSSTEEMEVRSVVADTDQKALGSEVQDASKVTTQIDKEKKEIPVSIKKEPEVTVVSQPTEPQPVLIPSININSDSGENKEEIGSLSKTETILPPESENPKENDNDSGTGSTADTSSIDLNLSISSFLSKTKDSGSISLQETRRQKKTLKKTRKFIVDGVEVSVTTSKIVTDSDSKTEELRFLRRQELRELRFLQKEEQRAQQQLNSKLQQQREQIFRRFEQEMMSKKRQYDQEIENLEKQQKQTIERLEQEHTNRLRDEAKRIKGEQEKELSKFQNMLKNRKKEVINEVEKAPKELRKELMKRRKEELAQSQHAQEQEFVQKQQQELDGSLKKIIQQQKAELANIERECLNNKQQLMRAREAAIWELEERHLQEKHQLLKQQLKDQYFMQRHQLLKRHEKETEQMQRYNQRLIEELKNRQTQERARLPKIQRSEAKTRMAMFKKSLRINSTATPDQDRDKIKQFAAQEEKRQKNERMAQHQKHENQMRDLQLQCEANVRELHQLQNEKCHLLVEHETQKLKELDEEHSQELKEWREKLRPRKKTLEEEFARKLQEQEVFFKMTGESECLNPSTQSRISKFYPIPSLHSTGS
Chain of PDGFRA (human) (P16234 whole entry, looked up): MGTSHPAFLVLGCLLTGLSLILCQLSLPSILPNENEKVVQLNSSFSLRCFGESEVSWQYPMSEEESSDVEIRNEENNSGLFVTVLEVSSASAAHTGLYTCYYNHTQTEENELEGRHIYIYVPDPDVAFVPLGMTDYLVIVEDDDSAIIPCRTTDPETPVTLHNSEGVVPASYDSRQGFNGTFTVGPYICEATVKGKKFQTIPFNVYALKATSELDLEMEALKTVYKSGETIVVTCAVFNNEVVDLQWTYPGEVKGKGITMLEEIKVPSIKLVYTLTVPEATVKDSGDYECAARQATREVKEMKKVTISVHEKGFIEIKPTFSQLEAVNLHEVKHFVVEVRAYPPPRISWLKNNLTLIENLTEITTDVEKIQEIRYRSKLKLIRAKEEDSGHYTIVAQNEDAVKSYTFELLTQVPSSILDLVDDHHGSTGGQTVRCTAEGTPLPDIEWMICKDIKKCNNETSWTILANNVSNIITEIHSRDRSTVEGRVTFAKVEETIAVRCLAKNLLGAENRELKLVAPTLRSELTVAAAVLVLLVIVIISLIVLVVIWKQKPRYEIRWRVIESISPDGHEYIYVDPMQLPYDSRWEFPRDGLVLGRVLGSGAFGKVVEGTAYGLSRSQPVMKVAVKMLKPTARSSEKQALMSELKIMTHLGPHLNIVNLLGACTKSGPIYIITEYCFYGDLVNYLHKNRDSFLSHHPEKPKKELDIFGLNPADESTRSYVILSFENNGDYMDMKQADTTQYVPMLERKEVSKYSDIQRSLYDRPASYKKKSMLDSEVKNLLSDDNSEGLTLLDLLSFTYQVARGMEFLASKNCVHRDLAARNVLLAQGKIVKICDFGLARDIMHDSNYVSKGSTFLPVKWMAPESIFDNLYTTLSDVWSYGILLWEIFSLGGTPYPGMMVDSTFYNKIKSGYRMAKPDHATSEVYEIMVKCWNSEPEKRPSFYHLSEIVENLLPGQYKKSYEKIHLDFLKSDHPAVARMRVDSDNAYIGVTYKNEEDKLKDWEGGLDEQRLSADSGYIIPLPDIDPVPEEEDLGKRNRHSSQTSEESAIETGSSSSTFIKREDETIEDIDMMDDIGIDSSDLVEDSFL
Chain of CDK4 CCND1 (human) (P11802 whole entry, looked up): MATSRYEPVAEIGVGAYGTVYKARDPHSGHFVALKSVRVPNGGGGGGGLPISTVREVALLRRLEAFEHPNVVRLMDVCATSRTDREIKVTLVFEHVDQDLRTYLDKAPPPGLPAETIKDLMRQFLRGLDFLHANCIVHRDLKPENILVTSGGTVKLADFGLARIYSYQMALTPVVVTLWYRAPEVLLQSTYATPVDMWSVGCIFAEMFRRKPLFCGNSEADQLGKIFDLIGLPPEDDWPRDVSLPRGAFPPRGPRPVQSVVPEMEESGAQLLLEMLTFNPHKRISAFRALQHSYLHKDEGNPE
Chain of CDK4 CCND1 (human) (P24385 whole entry, looked up): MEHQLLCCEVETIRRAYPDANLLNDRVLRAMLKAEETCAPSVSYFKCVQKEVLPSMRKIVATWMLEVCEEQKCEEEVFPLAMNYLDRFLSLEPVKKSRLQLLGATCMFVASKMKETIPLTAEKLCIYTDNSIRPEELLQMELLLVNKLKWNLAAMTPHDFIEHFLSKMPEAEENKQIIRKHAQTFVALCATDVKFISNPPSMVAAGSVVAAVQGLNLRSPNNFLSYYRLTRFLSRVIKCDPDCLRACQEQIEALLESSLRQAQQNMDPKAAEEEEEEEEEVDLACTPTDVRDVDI
Chain of HCK (human) (P08631 whole entry, looked up): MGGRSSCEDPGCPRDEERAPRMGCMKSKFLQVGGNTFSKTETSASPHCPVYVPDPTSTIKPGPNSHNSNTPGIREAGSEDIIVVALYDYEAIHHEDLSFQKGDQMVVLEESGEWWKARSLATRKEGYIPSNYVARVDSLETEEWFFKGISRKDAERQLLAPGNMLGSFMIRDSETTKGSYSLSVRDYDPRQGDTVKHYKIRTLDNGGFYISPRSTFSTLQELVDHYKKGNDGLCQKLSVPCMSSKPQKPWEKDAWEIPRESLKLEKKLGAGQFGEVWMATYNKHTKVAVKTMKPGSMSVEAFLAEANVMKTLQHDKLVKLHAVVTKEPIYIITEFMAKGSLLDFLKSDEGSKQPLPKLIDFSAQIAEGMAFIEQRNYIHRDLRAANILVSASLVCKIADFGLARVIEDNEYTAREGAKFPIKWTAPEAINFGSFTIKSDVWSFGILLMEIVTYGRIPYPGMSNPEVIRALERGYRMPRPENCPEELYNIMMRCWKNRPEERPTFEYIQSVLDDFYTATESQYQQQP
Chain of FLT3 (human) (P36888 whole entry, looked up): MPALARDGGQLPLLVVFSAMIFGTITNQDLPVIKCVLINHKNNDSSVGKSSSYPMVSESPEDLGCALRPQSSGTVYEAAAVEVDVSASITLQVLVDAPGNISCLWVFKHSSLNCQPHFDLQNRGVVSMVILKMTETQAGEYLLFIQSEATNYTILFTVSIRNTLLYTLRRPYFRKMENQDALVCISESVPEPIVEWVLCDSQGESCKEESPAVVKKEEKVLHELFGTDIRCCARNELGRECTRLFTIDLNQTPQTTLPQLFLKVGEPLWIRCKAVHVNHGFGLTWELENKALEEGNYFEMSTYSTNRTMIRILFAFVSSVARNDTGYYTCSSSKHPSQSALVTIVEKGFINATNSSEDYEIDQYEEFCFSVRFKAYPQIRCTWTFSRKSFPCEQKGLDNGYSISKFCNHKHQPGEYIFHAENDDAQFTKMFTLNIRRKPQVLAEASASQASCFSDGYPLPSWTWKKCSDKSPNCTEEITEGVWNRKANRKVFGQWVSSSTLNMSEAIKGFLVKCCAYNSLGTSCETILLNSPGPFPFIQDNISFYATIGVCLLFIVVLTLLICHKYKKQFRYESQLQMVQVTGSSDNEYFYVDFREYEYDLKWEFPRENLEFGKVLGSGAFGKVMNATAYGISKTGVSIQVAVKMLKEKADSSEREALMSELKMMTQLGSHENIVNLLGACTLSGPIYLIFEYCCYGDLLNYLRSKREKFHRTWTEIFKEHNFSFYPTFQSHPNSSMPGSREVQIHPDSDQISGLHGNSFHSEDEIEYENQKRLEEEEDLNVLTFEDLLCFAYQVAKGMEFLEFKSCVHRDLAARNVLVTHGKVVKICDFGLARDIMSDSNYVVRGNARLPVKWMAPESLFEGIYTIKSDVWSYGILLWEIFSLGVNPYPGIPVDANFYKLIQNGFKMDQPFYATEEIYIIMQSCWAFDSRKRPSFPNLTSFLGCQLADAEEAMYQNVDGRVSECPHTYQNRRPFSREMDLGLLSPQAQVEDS
Chain of CHEK1 (human) (O14757 whole entry, looked up): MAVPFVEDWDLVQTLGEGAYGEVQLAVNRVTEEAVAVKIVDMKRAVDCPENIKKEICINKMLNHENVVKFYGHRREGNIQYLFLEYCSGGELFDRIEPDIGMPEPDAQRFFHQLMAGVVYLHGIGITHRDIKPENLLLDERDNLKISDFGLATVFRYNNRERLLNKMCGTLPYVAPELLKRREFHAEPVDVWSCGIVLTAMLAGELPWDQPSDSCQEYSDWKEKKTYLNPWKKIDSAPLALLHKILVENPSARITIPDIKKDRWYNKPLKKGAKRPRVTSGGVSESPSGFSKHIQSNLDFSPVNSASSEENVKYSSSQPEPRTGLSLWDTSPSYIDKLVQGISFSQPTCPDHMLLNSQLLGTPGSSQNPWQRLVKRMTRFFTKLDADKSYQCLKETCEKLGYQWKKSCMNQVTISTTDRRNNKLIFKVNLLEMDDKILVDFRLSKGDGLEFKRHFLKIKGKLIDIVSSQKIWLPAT

O=C(Nc1ccc(Cl)cc1)c1ccccc1NCc1ccncc1
residual activity (AKT2 (human)): 95.2% | residual activity (CAMK1G (human)): 101% | residual activity (CAMK2A (human)): 99.9% | residual activity (CAMK2B (human)): 93.4% | residual activity (CAMK2D (human)): 101% | residual activity (CDK2 CCNA2 (human)): 92.2% | residual activity (CDK3 CCNE1 (human)): 87.4% | residual activity (CDK4 CCND1 (human)): 104% | residual activity (CDK6 CCND3 (human)): 86.5% | residual activity (CHEK1 (human)): 96.4% | residual activity (CLK1 (human)): 102% | residual activity (DAPK1 (human)): 99.9% | residual activity (DAPK2 (human)): 98.4% | residual activity (EPHB2 (human)): 84.7% | residual activity (FLT3 (human)): 91.5% | residual activity (HCK (human)): 101% | residual activity (IKBKB (human)): 99.3% | residual activity (INSRR (human)): 96.1% | residual activity (IRAK4 (human)): 104% | residual activity (JAK2 JH1 JH2 (human)): 96.5% | residual activity (MAP3K9 (human)): 89% | residual activity (MKNK2 (human)): 82.3% | residual activity (PAK2 (human)): 91% | residual activity (PAK7 (human)): 79.4% | residual activity (PDGFRA (human)): 81.3% | residual activity (PRKACA (human)): 97.1% | residual activity (PRKCA (human)): 96.7% | residual activity (PRKCB2 (human)): 93.3% | residual activity (PRKG2 (human)): 99.1% | residual activity (PRKX (human)): 90.5% | residual activity (ROCK1 (human)): 98.4% | residual activity (SLK (human)): 86.6% | residual activity (STK10 (human)): 81.8% | residual activity (STK11 (human)): 93.5% | residual activity (STK3 (human)): 94.2% | residual activity (SYK (human)): 93.6% | residual activity (TAOK3 (human)): 94.1% | residual activity (TBK1 (human)): 88.4% | residual activity (TGFBR1 (human)): 100% | residual activity (TGFBR2 (human)): 90.1% | residual activity (TSSK2 (human)): 86.3% | residual activity (TYRO3 (human)): 105%

O=c1cc(N2CCNCC2)oc2c(-c3ccccc3)cccc12
residual activity (AKT2 (human)): 100% | residual activity (CAMK1G (human)): 94.7% | residual activity (CAMK2A (human)): 104% | residual activity (CAMK2B (human)): 108% | residual activity (CAMK2D (human)): 93.6% | residual activity (CDK2 CCNA2 (human)): 104% | residual activity (CDK3 CCNE1 (human)): 96.9% | residual activity (CDK4 CCND1 (human)): 115% | residual activity (CDK6 CCND3 (human)): 93.8% | residual activity (CHEK1 (human)): 104% | residual activity (CLK1 (human)): 102% | residual activity (DAPK1 (human)): 91.1% | residual activity (DAPK2 (human)): 94% | residual activity (EPHB2 (human)): 97.3% | residual activity (FLT3 (human)): 108% | residual activity (HCK (human)): 93.7% | residual activity (IKBKB (human)): 103% | residual activity (INSRR (human)): 89.2% | residual activity (IRAK4 (human)): 96.8% | residual activity (JAK2 JH1 JH2 (human)): 104% | residual activity (MAP3K9 (human)): 101% | residual activity (MKNK2 (human)): 107% | residual activity (PAK2 (human)): 99.8% | residual activity (PAK7 (human)): 104% | residual activity (PDGFRA (human)): 97.4% | residual activity (PRKACA (human)): 110% | residual activity (PRKCA (human)): 99.1% | residual activity (PRKCB2 (human)): 101% | residual activity (PRKG2 (human)): 107% | residual activity (PRKX (human)): 99% | residual activity (ROCK1 (human)): 104% | residual activity (SLK (human)): 105% | residual activity (STK10 (human)): 94.3% | residual activity (STK11 (human)): 101% | residual activity (STK3 (human)): 102% | residual activity (SYK (human)): 104% | residual activity (TAOK3 (human)): 92.8% | residual activity (TBK1 (human)): 98.7% | residual activity (TGFBR1 (human)): 97.3% | residual activity (TGFBR2 (human)): 88.4% | residual activity (TSSK2 (human)): 101% | residual activity (TYRO3 (human)): 107%

Oc1ccc(-c2nc(-c3ccc(F)cc3)c(-c3ccncc3)[nH]2)cc1
residual activity (AKT2 (human)): 99% | residual activity (CAMK1G (human)): 98.5% | residual activity (CAMK2A (human)): 104% | residual activity (CAMK2B (human)): 96.4% | residual activity (CAMK2D (human)): 88.1% | residual activity (CDK2 CCNA2 (human)): 101% | residual activity (CDK3 CCNE1 (human)): 96.7% | residual activity (CDK4 CCND1 (human)): 105% | residual activity (CDK6 CCND3 (human)): 104% | residual activity (CHEK1 (human)): 98.9% | residual activity (CLK1 (human)): 107% | residual activity (DAPK1 (human)): 95% | residual activity (DAPK2 (human)): 96.8% | residual activity (EPHB2 (human)): 105% | residual activity (FLT3 (human)): 95.1% | residual activity (HCK (human)): 97.6% | residual activity (IKBKB (human)): 110% | residual activity (INSRR (human)): 98% | residual activity (IRAK4 (human)): 124% | residual activity (JAK2 JH1 JH2 (human)): 96.2% | residual activity (MAP3K9 (human)): 53.1% | residual activity (MKNK2 (human)): 89.4% | residual activity (PAK2 (human)): 94.1% | residual activity (PAK7 (human)): 107% | residual activity (PDGFRA (human)): 98.8% | residual activity (PRKACA (human)): 84.3% | residual activity (PRKCA (human)): 102% | residual activity (PRKCB2 (human)): 75% | residual activity (PRKG2 (human)): 94.2% | residual activity (PRKX (human)): 84% | residual activity (ROCK1 (human)): 101% | residual activity (SLK (human)): 91.2% | residual activity (STK10 (human)): 85% | residual activity (STK11 (human)): 93.1% | residual activity (STK3 (human)): 105% | residual activity (SYK (human)): 101% | residual activity (TAOK3 (human)): 103% | residual activity (TBK1 (human)): 95.2% | residual activity (TGFBR1 (human)): 108% | residual activity (TGFBR2 (human)): 127% | residual activity (TSSK2 (human)): 93.1% | residual activity (TYRO3 (human)): 97.5%
